The values that follow come from patent publication US10517835B2, “Composition and methods of treatment” (Blueberry Therapeutics Limited, priority 2015, dated 2019).

In series [1] the test system is Trychophyton mentagrophytes. Kind of series: Paper disk zone of clearance assay on YEPD agar. The format is cell-based. The following applies: 4 days 30° C. As to the method: The antifungal activity of a range of concentrations of terbinafine, encompassing the concentrations range passing through the nails in the Franz cells, was tested. Terbinafine was diluted to the following concentrations in double distilled water: 60, 6, 0.6 and 0.06 μg/ml. 40 μl of each terbinafine solution and double distilled water alone was spotted onto a 10 mm sterile 3 MM paper disk. Each disk was placed on a lawn of Trychophyton mentagrophytes plated on yeast extract peptone dextrose (YEPD) agar plates. T. mentagrophytes was used as a laboratory fungal strain due to its relevance to key pathogenic species in onychomycosis (fungal nail infection). The agar plates were inverted and incubated at 30° C. for 4 days. The plates were photographed and analysed for zones of clearance, which indicate antifungal activity.

A short description of series [2]: Nanoparticle formation, number and size on Malvern Instruments Nanosight LM10. The format is physicochemical. The following applies: 0.1 mg/ml terbinafine in 30% ethanol, with or without 0.3 mg/ml PHMB, room temperature at least 24 hours; for particle number: hydrochloride. As to the method:
Terbinafine was mixed at 0.1 mg/ml in 30% ethanol and incubated at room temperature for at least 24 hours up to a maximum of 47 days. Another formulation was prepared by mixing terbinafine at 0.1 mg/ml in 30% ethanol and then adding PHMB to 0.3 mg/ml. The formulation was incubated at room temperature for at least 24 hours up to a maximum of 112 days. The number and size of any nanoparticles formed were measured using a Malvern Instruments Nanosight LM10.

Molecules are shown by their SMILES. Entries after “also recorded” stand apart in the source; their conditions may differ. Where a name gives a salt, the structure may show the parent alone.

In the case of `CN(C/C=C/C#CC(C)(C)C)Cc1cccc2ccccc12` [terbinafine, terbinafine hydrochloride], the zone of clearance entry in series [1] (40 μl of 0.06 μg/ml solution on 10 mm disk) is recorded as “no zone of clearance”; in series [1] (40 μl of 0.6 μg/ml solution on 10 mm disk, hydrochloride), “clear zones of clearance; also recorded: Progressively smaller zones of clearance”; in series [1] (40 μl of 6 μg/ml solution on 10 mm disk, hydrochloride), “clear zones of clearance; also recorded: Progressively smaller zones of clearance”; in series [1] (40 μl of 60 μg/ml solution on 10 mm disk, hydrochloride), “clear zones of clearance; also recorded: largest zone of clearance”. The particle size range in series [2] is recorded as 50-800 nm. The values for the particle number in series [2] and in series [2] (listed as terbinafine alone) were 0.5×10^8 particles/ml and “Approximately 0.5×10^8 particles/ml”, respectively.
